What was measured:
[1] = system: Plasmodium falciparum 3D7; assay: Effect of indole compounds in parasitemia (48 h), 3D7; type: cell-based; details: 3D7, 100 nM melatonin
Description: Red blood cells infected (iRBC) with 3D7 or PfeIK1^‐ (iRBC) with 1% initial parasitemia and 2% hematocrit were incubated with 500 nM of the synthetic indole compounds or 100 nM Melatonin for 48 hours at 37°C under mixture of gases. ^12 The control group received 0.0013% of solvent dimethyl sulfoxide (DMSO).
After 48 hours, iRBC were double‐stained ^34 with nucleic acid marker SYBR Green I (1X) and mitochondria marker, based on membrane potential, MitoTracker Deep Red (50 nM), and incubated for 20 minutes at 37°C.
Final parasitemia was obtained by flow cytometer using an Accuri C6 flow cytometer (Becton Dickinson), collecting 10^4 cells. Parasitemia was determined by dot plots using FlowJo 5 software.

[2] = system: pfeik1 gene expression in P. falciparum 3D7; assay: Quantitative real-time PCR of pfeik1 expression; type: cell-based, Plasmodium falciparum; details: 100 nM melatonin, 4 h
Description: For these experiments, P. falciparum 3D7 culture was synchronized with 5% sorbitol and parasites collected in the three stages: ring (14 hours); trophozoite (30 hours); and schizont (44 hours), at 4% parasitemia. Parasites were treated with 100 nM Melatonin or 0.00005% ethanol (control) and left for 4 hours before RNA extraction with Trizol (Invitrogen). RNA purified with ionic exchange columns with DNAse using RNAse‐free DNAse set (Qiagen) and RNeasy Mini Kit (Qiagen) and quantified in a UV‐Vis NanoDrop 2000c (Thermo Scientific). Three independent experiments were performed in triplicates.
cDNA syntheses were performed using random primers and Superscript II reverse transcriptase (Invitrogen) according to the manufacturer’s protocol. SYBR Green (Applied Biosystems) was used in quantitative real‐time PCR on a 7300 Real‐Time PCR System (Applied Biosystems). Amplification was carried out as follow: on step 50°C for 2 min and 95°C for 10 min for enzyme activation followed by 40 cycles of 95°C for 0.15 min for denaturation and 60°C for 1 min for annealing/extension. The primers used were as follows: PF14_0423‐Fwd […] and PF14_0423‐Rvs […].
Changes in relative expression were determined by 2^‐ΔΔCt or transforming the threshold cycle in absolute number of mRNA. […]

COc1ccc2[nH]cc(CCNC(C)=O)c2c1 [melatonin, N‐acetyl‐ 5‐methoxytryptamine]
increase in parasitemia [1]: approximately 10%
parasitemia normalized to control, hormone only [1]: 110%
decrease in pfeik1 expression compared to control ([2]; ring stage): 40%
pfeik1 expression vs solvent ([2]; trophozoite and schizont stages): no significant difference
